Consider one compound from patent publication US11617735B2, “Purified forms of rofecoxib, methods of manufacture and use” (Tremeau Pharmaceuticals, Inc., priority 2018, dated 2023).

Read-outs that look alike come from different tables or passages of the source.

The data set is described as follows: Solubility in solvents by UHPLC assay. The format is physicochemical. From the text: The tool called “Early phase solvent selection: solubility prediction” was used. This tool allows to predict the solubility of material in a large scope of solvents, knowing the solubility in some of them. The solubility can be also predicted in function of temperature, and for solvent combinations. The solubility prediction is based on similar structures moieties between solvents. Therefore, the measurement of solubility in 16 different solvents allowed for the estimate of solubility in up to 106 solvents. […] Solubilities were obtained by UHPLC assay. Among these 106 solvents, 27 seemed interesting as solvent or antisolvent. DMF. NMP and DMSO are the solvents in which rofecoxib (RXB-201) is the most soluble (>100 g/L at 30° C.). Nevertheless, ICH Q3C, DMF and NMP were less suitable than DMSO which remains the best option. Thus, no changes were implemented regarding the solvent.
Since the main purpose of the recrystallization is to decrease the rate of one single identified impurity, 4-[4-(methylsulfinyl)phenyl]-3-phenyl-2(5H)-furanone solubilities were measured in a couple of probable antisolvents identified in Table 9. A reference of 4-[4-(methylsulfinyl)phenyl]-3-phenyl-2(5H)-furanone (CHG P059-038) was synthesized at lab on 8 g for this study, with 98% purity, as per International Patent Application No. WO/2005/120584, which is incorporated herein in its entirety. Table 10 below reports the solubility of 4-[4-(methylsulfinyl)phenyl]-3-phenyl-2(5H)-furanone in various antisolvent candidates. It is noteworthy that 4-[4-(methylsulfinyl)phenyl]-3-phenyl-2(5H)-furanone is very soluble in acetic acid. […] Alcohols can alternatively be employed as antisolvent.

For `CS(=O)(=O)c1ccc(C2=C(c3ccccc3)C(=O)OC2)cc1` [Rofecoxib, 4-[4-(methylsulfonyl)phenyl]-3-phenyl-2(5H)-furanone], the solubility (usually the concentration that dissolves in the medium under given conditions) is 133 mg/mL (DMF, 30 °C); greater than 100 mg/mL (DMF, 30 °C, organic solvent or mixture, DMF, 30 °C, read-out: Solubility); 93 mg/mL (DMSO, 20 °C, organic solvent or mixture, DMSO, 20 °C, read-out: Solubility); 107 mg/mL (DMSO, 30 °C); greater than 100 mg/mL (DMSO, 30 °C, organic solvent or mixture, DMSO, 30 °C, read-out: Solubility); 133 mg/mL (DMSO, 40 °C, organic solvent or mixture, DMSO, 40 °C, read-out: Solubility). The solubility is, setting by setting: (DMSO, 50 °C, organic solvent or mixture, DMSO, 50 °C, read-out: Solubility) 181 mg/mL; (DMSO, 60 °C, organic solvent or mixture, DMSO, 60 °C, read-out: Solubility) 181 mg/mL; (NMP, 30 °C, organic solvent or mixture, NMP, 30 °C, read-out: Solubility) greater than 100 mg/mL; (acetic acid, 30 °C, organic solvent or mixture, Acetic acid, 30 °C, read-out: Solubility) 5 mg/mL; (acetone, 30 °C, organic solvent or mixture, Acetone, 30 °C, read-out: Solubility) 28 mg/mL; (acetonitrile, 30 °C, organic solvent or mixture, Acetonitrile, 30 °C, read-out: Solubility) 41 mg/mL. Also, the solubility reads like this: (anisole, 30 °C, organic solvent or mixture, Anisole, 30 °C, read-out: Solubility) 22 mg/mL; (chlorobenzene, 30 °C, organic solvent or mixture, Chlorobenzene, 30 °C, read-out: Solubility) 2.3 mg/mL; (dichloromethane, 30 °C, organic solvent or mixture, Dichloromethane, 30 °C, read-out: Solubility) 45 mg/mL; (ethyl acetate, 30 °C, organic solvent or mixture, Ethyl acetate, 30 °C, read-out: Solubility) 4.7 mg/mL; (methanol, 30 °C, organic solvent or mixture, Methanol, 30 °C, read-out: Solubility) 1.8 mg/mL; (n-butanol, 30 °C, organic solvent or mixture, n-butanol, 30 °C, read-out: Solubility) 0.2 mg/mL. In addition, the solubility (n-heptane, 30 °C, organic solvent or mixture, n-heptane, 30 °C, read-out: Solubility) was less than 0.1 mg/mL; the solubility (toluene, 30 °C, organic solvent or mixture, Toluene, 30 °C, read-out: Solubility) stood at 1.2 mg/mL; the solubility (water, 30 °C, water, 30 °C, read-out: Solubility) was less than 0.1 mg/mL. Moreover, the “Solubility in water (descriptive)” value (water, insoluble regarding US pharmacopeia) is recorded as “very poorly soluble”.
